{"source": "patent US20110159080A1", "about": "“COMPOSITION COMPRISING LIPOSOME-ENTRAPPED DOXORUBICIN AND METHODS OF ADMINISTRATION” (priority 2008, published 2011)", "origin": "cited, not measured here", "key": {"[1]": {"system": "recurrent stage III or IV ovarian cancer"}, "[2]": {"system": "persistent or recurrent epithelial ovarian cancer"}, "[3]": {"system": "xenotransplant models of colon cancer", "settings": "nude (athymic) mice"}, "[4]": {"system": "platinum resistant advanced ovarian carcinoma", "settings": "human, in vivo"}, "[5]": {"system": "primary or secondary platinum-resistant ovarian cancer", "settings": "bevacizumab 15 mg/kg every 21 days"}}, "data": [{"compound": "N.N.O=C([O-])C1(C(=O)[O-])CCC1.[Pt+2]", "note": "[carboplatin]", "values": [{"measurement": "response rate", "setting": "[1]; DOXIL 30 mg/m^2 plus carboplatin AUC 5 or carboplatin alone AUC 5, every 4 weeks, p=0.02", "result": 32, "unit": "%"}, {"measurement": "estimated median PFS", "setting": "[1]; every 4 weeks", "result": 8, "unit": "months"}, {"measurement": "estimated median overall survival", "setting": "[1]; every 4 weeks, p=0.02", "result": 18, "unit": "months"}]}, {"compound": "CC[C@@]1(O)C(=O)OCc2c1cc1n(c2=O)Cc2cc3c(CN(C)C)c(O)ccc3nc2-1", "note": "[topotecan]", "values": [{"measurement": "toxicity profile", "setting": "recurrent ovarian cancer; DOXIL 50 mg/m^2 every 4 weeks, topotecan 1.5 mg/m^2/day for 5 days every 3 weeks", "result": "significant myelosuppression and alopecia"}, {"measurement": "median OS", "setting": "recurrent ovarian cancer; subset with platinum-sensitive disease, p=0.008", "result": 71.1, "unit": "weeks"}, {"measurement": "median PFS", "setting": "recurrent ovarian cancer; subset with platinum-sensitive disease, p=0.037", "result": 23.3, "unit": "weeks"}]}, {"compound": "bevacizumab: recombinant humanized monoclonal IgG1 antibody that binds to and inhibits human vascular endothelial growth factor (VEGF)", "values": [{"measurement": "complete responses (number of subjects)", "setting": "[2]; 62 eligible subjects", "result": "two"}, {"measurement": "subjects surviving progression free for at least 6 months", "setting": "[2]; 62 eligible subjects", "result": 40.3, "unit": "%"}, {"measurement": "subjects with clinical response", "setting": "[2]; bevacizumab 15 mg/kg IV every 21 days, 62 eligible subjects", "result": 21.0, "unit": "%"}, {"measurement": "Grade 3 adverse events: GI (number)", "setting": "[2]; in vivo", "result": 3}, {"measurement": "Grade 3 adverse events: coagulation (number)", "setting": "[2]; in vivo", "result": 1}, {"measurement": "Grade 3 adverse events: constitutional (number)", "setting": "[2]; in vivo", "result": 1}, {"measurement": "Grade 3 adverse events: dyspnea (number)", "setting": "[2]; in vivo", "result": 1}, {"measurement": "Grade 3 adverse events: hematologic (number)", "setting": "[2]; in vivo", "result": 1}, {"measurement": "Grade 3 adverse events: hepatic (number)", "setting": "[2]; in vivo", "result": 1}, {"measurement": "Grade 3 adverse events: hypertension (number)", "setting": "[2]; in vivo", "result": 6}, {"measurement": "Grade 3 adverse events: pain (number)", "setting": "[2]; in vivo", "result": 3}, {"measurement": "Grade 3 adverse events: thromboembolism (number)", "setting": "[2]; in vivo", "result": 1}, {"measurement": "Grade 4 adverse events: proteinuria (number)", "setting": "[2]; in vivo", "result": 1}, {"measurement": "Grade 4 adverse events: pulmonary embolus (number)", "setting": "[2]; in vivo", "result": 1}, {"measurement": "Grade 4 adverse events: vomiting and constipation (number)", "setting": "[2]; in vivo", "result": 1}, {"measurement": "median PFS", "setting": "[2]; in vivo", "result": 4.7, "unit": "months"}, {"measurement": "median overall survival", "setting": "[2]; in vivo", "result": 17, "unit": "months"}, {"measurement": "median response duration", "setting": "[2]; in vivo", "result": 10, "unit": "months"}, {"measurement": "effect on metastatic disease progression", "setting": "[3]", "result": "inhibition of metastatic disease progression"}, {"measurement": "effect on microvascular growth", "setting": "[3]", "result": "reduction in microvascular growth"}, {"measurement": "cases of perforation", "setting": "[4]", "result": "no cases of perforation"}, {"measurement": "6-month PFS rate", "setting": "[5]", "result": 27, "unit": "%"}, {"measurement": "response rate", "setting": "[5]", "result": 16, "unit": "%"}]}]}
